Data reported in patent US7396655B2, “Method for enhancing activity of luciferase with fluorescence activity” (Chisso Corporation, priority 2005, dated 2008).
“Also recorded” adds a separate entry of the source. Where two headings read alike, the source gives them in different places.

Key:
[1] = molecular target: T1, BFP-aq, luciferase with fluorescence activity derived from aequorin (recombinant apoaequorin, SEQ ID NO: 1 with N-terminal Val replaced by Ala-Asn-Ser); complex (Aequorea victoria, UniProt P02592); assay: Luminescence of BFP-aq with coelenterazine and analogs, with/without imidazole (Table 5); assay type: biochemical; details: without imidazole; pH 8.0; coelenterazine without imidazole = 100%
T1 construct: The recombinant apoaequorins encoded by piP-HE is composed of 191 amino acids, whose N-terminus starts from Ala-Asn-Ser-; made in house; host or cells: E. coli strain WA802 (expression vector piP-HE)
T1 sequence (P02592 with tags, fused parts or gaps): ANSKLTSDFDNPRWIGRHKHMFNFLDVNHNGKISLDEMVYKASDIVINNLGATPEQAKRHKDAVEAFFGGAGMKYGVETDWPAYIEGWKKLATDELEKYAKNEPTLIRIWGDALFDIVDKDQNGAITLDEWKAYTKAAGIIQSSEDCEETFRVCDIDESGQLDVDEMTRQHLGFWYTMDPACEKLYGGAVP
Protocol: 200 μl of this solution was placed in five vessels, to each of which 1 μg of the substrate coelenterazine (CTZ) and its four analogs: h-CTZ, cp-CTZ, hcp-CTZ, f-CTZ were added. […] Assuming that the maximum intensity activity (Imax) and initial velocity of BFP-aq luminescence activity in 50 mM Tris-HCl (pH 8.0) was 100%, the effect of the addition of imidazole on luminescence activity was examined.

[2] = molecular target: T2, Renilla reniformis luciferase (recombinant, N-terminal histidine tag) (Renilla reniformis, UniProt P27652); assay: Effect of imidazole on Renilla reniformis luciferase luminescence (control, FIG. 5); assay type: biochemical; details: increasing concentrations of imidazole (0.1 to 1000 mM), pH 8.0, coelenterazine substrate
T2 sequence (P27652 1-311): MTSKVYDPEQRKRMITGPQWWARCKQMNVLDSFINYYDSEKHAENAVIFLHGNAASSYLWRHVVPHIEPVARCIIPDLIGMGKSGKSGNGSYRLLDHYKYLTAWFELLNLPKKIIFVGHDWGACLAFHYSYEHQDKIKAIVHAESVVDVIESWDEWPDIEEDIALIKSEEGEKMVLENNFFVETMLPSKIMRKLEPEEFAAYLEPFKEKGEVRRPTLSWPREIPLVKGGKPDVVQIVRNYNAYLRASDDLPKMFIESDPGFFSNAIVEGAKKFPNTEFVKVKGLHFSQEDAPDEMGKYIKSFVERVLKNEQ
Protocol: (§1) 50 mM Tris-HCl (pH 8.0) containing imidazole at various concentrations (0. 1, 0.3, 1, 3, 10, 30, 60, 100, 150, 200, 250, 300, 400, 500, 600, 700, 800, 900, and 1000 mM) was prepared and pre-warmed at 25° C. The substrate coelenterazine (1 μg) was added to each imidazole-containing solution (200 μl).
(§2) As a control experiment, the same experiment was conducted using Renilla reniformis luciferase, which contains coelenterazine as luminescent substrate.

[3] = molecular target: T3, Renilla reniformis luciferase (Renilla reniformis, UniProt P27652); assay: Control experiment: Renilla reniformis luciferase luminescence with imidazole; assay type: biochemical; details: increasing concentrations of imidazole
T3 construct: histidine tag (N); made in house; host or cells: E. coli Top10
T3 sequence (P27652 1-311): T2 sequence (P27652 1-311)
Protocol: Renilla reniformis luciferase, a monomeric luciferase (36 kDa) derived from Renilla reniformis, catalyzes oxidation of the substrate coelenterazine to trigger light emission.
50 mM Tris-HCl buffer (200 μl), pH 7.6, was pre-warmed at 25° C., to which the substrate coelenterazine (1 μg/μl) dissolved in ethanol was added. A light-emitting reaction was triggered by adding Renilla reniformis luciferase (1.2 μg). […] The measured values were represented as the maximum intensity (Imax) of luminescence activity.
As a control experiment, the same experiment was conducted using Renilla reniformis luciferase, which contains coelenterazine as luminescent substrate. […] That is, it was shown that the enhancing effect on luminescence activity by the addition of imidazole is specific for BFP-aq.

[4] = molecular target: T4, BFP-aq (Aequorea victoria, UniProt P07164); assay: biochemical; assay type: biochemical; design: The recombinant apoaequorins encoded by piP-HE is composed of 191 amino acids, whose N-terminus starts from Ala-Asn-Ser-; made in house; host or cells: E. coli strain WA802
Protocol: Solutions of 50 mM Tris-HCl (pH 8.0), each containing various commercial organic compounds shown in Table 3, were prepared and pre-warmed at 25° C. The substrate coelenterazine (1 μg) was added to the solutions (200 μl) containing each of these compounds.

[5] = molecular target: T4, BFP-aq; details: with vs without 150 mM imidazole
Protocol: Then, luminescence activity was measured with the luminometer Luminescencer-PSN AB2200 (manufactured by Atto Co., Ltd.) for 60 seconds. Using the luminescence activity for the first 3 sec of the light-emitting reaction as the initial reaction rate, Km values were determined by the Lineweaver-Burk plot method.

[6] = molecular target: T1, BFP-aq, luciferase with fluorescence activity derived from aequorin (recombinant apoaequorin, SEQ ID NO: 1 with N-terminal Val replaced by Ala-Asn-Ser); complex; assay: Light-emitting reaction rate of BFP-aq, Lineweaver-Burk plot (Table 6); assay type: biochemical; details: with or without 150 mM imidazole
[7] = molecular target: T4, BFP-aq; assay type: biochemical; design: The recombinant apoaequorins encoded by piP-HE is composed of 191 amino acids, whose N-terminus starts from Ala-Asn-Ser-; made in house; host or cells: E. coli strain WA802; details: pH 8.0
Protocol: as §1, §2

[8] = molecular target: T1, BFP-aq, luciferase with fluorescence activity derived from aequorin (recombinant apoaequorin, SEQ ID NO: 1 with N-terminal Val replaced by Ala-Asn-Ser); complex; assay: Optimal imidazole concentration for enhancing BFP-aq luminescence (FIG. 5); assay type: biochemical; details: pH 8.0, 25° C., coelenterazine substrate; compared with no imidazole
Protocol: as §1, with “μl). […] Assuming that the maximum intensity activity (Imax) of BFP-aq luminescence activity in 50 mM Tris-HCl (pH 8.0) is 100%, the relative luminescence activity values are shown in FIG. 5.” for “μl).”

[9] = pH 8, read-out: Luminescence activity (%) Imax
[10] = pH 8, read-out: Luminescence activity (%) Initial velocity

O=c1c(Cc2ccc(O)cc2)nc2c(CC3CCCC3)[nH]c(-c3ccc(O)cc3)cn1-2 [cp-Coelenterazine, cp-coelenterazine]
Relative luminescence activity, Imax [1]: 54%

c1c[nH]cn1 [Imidazole]
Luminescence activity of Renilla reniformis luciferase with imidazole, in words [2]: remarkably inhibited with increasing concentrations of imidazole | Effect on luminescence activity of Renilla reniformis luciferase [3]: remarkably inhibited | activity at 30000 µM [4, 9]: 148% | activity at 150000 µM [4, 9]: 199% | activity at 30000 µM [4, 10]: 153% | activity at 150000 µM [4, 10]: 205% | Enhancement of BFP-aq luminescence activity (Imax), in words ([4]; pH 8.0, Table 4 comparison): marked luminescence activity (Imax) occurs only when 150 mM imidazole was added | Change of Km values [5]: no marked changes | Change of Vmax [5]: doubled | Km change with imidazole, in words [6]: no marked changes were found in the Km values | Vmax change with imidazole, in words [6]: only Vmax was doubled in the system with imidazole | Luminescence activity compared with the system without imidazole ([7]; 150 mM imidazole): more than two-fold | Effect on luminescence activity of BFP-aq ([7]; 30 to 250 mM imidazole): enhanced | Luminescence activity of BFP-aq with imidazole, in words [8]: enhanced at 30 to 250 mM imidazole; also recorded: more than two-fold of the luminescence activity
